Reference: patent publication US10827753B2, “Compositions and methods for controlling nematodes” (Monsanto Technology LLC, priority 2007, dated 2020)

Key:
Assay type in all cases: in vivo
[1] = system: Meloidogyne incognita; test: Fall nematicidal field testing on squash microplots; conditions: for control of root galling compared with oxamyl at an equivalent rate: 2 kg/ha
From the text: The test site was located at 3511 Highway F in New Melle, Mo., Saint Charles county. The soil was a native prairie/pasture covering silty clay loam soil. Holes were dug using a Bobcat 763 skid loader with a 12-inch auger to a depth of 18 inches. Total volume of each hole was about 1.2 cubic feet. Six cubic yards of topsoil and 9 tons of river sand were purchased from Dardenne Farms Topsoil. Mixing to a ratio of 4 volumes sand to 1 volume soil was accomplished using a trailer-mounted 9 cubic foot concrete mixer. Holes were filled and then re-filled 5 days later after settling. The mixture was 92.5% sand, 2.5% silt, and 5% clay. Organic matter was 0.2% and pH was 6.8.
Treatments were arranged in a block design with the blocks laid out perpendicular to the primary slope and parallel to secondary slope. There are 7 inoculated controls and 5 non-inoculated controls and the distributions of disease severity appeared independent of location.
Application rates are expressed as kg of active material per hectare, and the mg per plot is based on the surface area of the bored and filled holes (0.000008559 Ha). The DC compounds were formulated immediately before application as follows: 1) the amount required to treat all six replicates was dissolved in 300 ml of acetone, 2) for each plot 50 ml of that solution was added to a graduated cylinder with 2 ml of 12.5% Triton X100 and the volume was raised to 500 ml with tap water. The resultant mix is the same as used in the standard greenhouse assays (10% acetone, 0.05%×100). The oxamyl treatments were prepared from Vydate 2 L formulated the same way. The 500 ml was placed in a watering can and the entire volume was evenly sprinkled over the surface of the plot. No runoff occurred and pooling, if any, was short lived. The final drench volume was 0.58 ml/cm^2, compared to 0.2 ml/cm^2 used in our greenhouse, however the microplots are much deeper so the drench volume applied per soil volume treated is roughly the same.
Meloidogyne incognita eggs were harvested over a two week period and stored at approximately 5° C. until needed. A stock of 5.6 million vermiform eggs was adjusted to 9000/ml in 620 ml. One day after treatment, two holes were made in each plot about 7 cm apart and equidistant from the squash plants. Five ml of egg suspension was pipetted into each hole, which was then sealed and the plot lightly watered. A total of 90,000 vermiform eggs were added to each plot.
The first root evaluation was at 28 DAT. The tops were cut off and weighed immediately in the field, and the roots were carefully dug out so as not to disturb the remaining plant.

[2] = system: Meloidogyne incognita; test: Summer field evaluation of pre-plant incorporated compounds on squash
How it was run: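 PPI simulation: compound in acetone/Triton X-100 and water mixed into 80% sand/20% silt loam with chopped galled tomato roots, filling top 15 cm of 6 replicate field plots. M. incognita eggs/larvae (100 k per plot) injected 5 cm deep; three-week-old squash cv. Liberator III planted 4 days after treatment.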

[3] = system: Caenorhabditis elegans ced-3(n717) and ced-4(N1162) mutants; test: Susceptibility of apoptosis-defective C. elegans mutants on NGM agar plates; conditions: 10 μg/ml on NGM agar plates

Row | Structure (SMILES) | RG28 = % root galls at 28 days after treatment ([1]; 2 kg ai/ha drench, squash) | RG43 = % root galls at 43 days after treatment ([1]; 2 kg ai/ha drench, squash) | control of root galling compared with oxamyl at an equivalent rate ([1]; 28 day time point) | control of root galling compared with oxamyl at an equivalent rate ([1]; 43 day time point) | 0-3 vigor 16 DAP ([2]; 4 kg (kg/ha) PPI, squash) | 0-3 vigor 21 DAP ([2]; 4 kg (kg/ha) PPI, squash) | feeder root (3 = ave) 31 DAP ([2]; 4 kg (kg/ha) PPI, squash) | gall % 31 DAP ([2]; 4 kg (kg/ha) PPI, squash) | root wgt (g) 31 DAP ([2]; 4 kg (kg/ha) PPI, squash) | top wgt (lbs) 31 DAP ([2]; 4 kg (kg/ha) PPI, squash) | total fruit (lbs) ([2]; 4 kg (kg/ha) PPI, squash) | control of M. incognita (in words) ([2]; PPI application at 4 kg/ha) | difference in susceptibility between wild-type (N2 Bristol) and ced-3 and ced-4 mutants, including time to mortality [3]
1 | Brc1ccc(-c2cnc(-c3cccs3)o2)cc1 [compound 4776] | 19.0% | 26.8% | statistically better than oxamyl | statistically better than oxamyl |  |  |  |  |  |  |  |  | 
2 | Cc1cc(Cl)ccc1-c1noc(-c2ccco2)n1 [compound 5823] |  |  |  |  | 3.0 | 3.0 | 2.7 | 3% | 22.6 g | 1.45 lbs | 1.44 lbs | excellent control | No observable phenotypic difference in susceptibility
